According to patent US5059624A, “Guanidine derivatives having hypotensive activity, composition containing them and process for obtaining them” (Consiglio Nazionale Delle Ricerche, priority 1988, dated 1991):
Where two headings read alike, the source gives them in different places.

Experiments:
male Wistar rats [1] = assay: Comparison with known active ingredients in male Wistar rats under sodium thiopental anaesthesia, rapid i.v. or 5 min infusion; assay type: in vivo, rat (male Wistar); conditions: 5 mcg/kg, i.v.; maximum response
Procedure: In order to compare the activity of the compounds of the present invention to that of the products of the prior art, various doses of known anti-hypertensive, hypotensive and vasoactive drugs were administered to male Wistar rats under general anaesthesia by sodium thiopental (50 mg/kg, i.p.). The administration was effected through "rapid" i.v. route or through intravenous infusion (inf.) for a time of 5 minutes.
The dose of each product is referred to the base, and the volumes injected were of 100 mcl in case of i.v. administration and […] total (0.9% sodium chloride solution) in case of infusion. The various parameters were evaluated in the same way as in the preceding experiments.

male Wistar rats [2] = conditions: for cardiovascular and respiratory effects (in words): i.v.
Procedure: In order to check its activity, diguanido-II was dissolved in a 0.9 % sodium chloride solution and administered through "rapid" i.v. route in male Wistar rats, under general anaesthesia obtained by means of 10% ethyl urethan (i ml/hg).
The active ingredients called guanido-III, -IV, -V, as well as agmatine and galegine, were also tested, after having been administered through "rapid" i.v. route in male Wistar rats (weighing average 280±5 g) under general anaesthesia obtained by means of 10% ethyl uretan (1 ml/hg, i.p.). The general experimental conditions were exactly the same as previously mentioned for guanido-I and diguanido-II, so that the cardiovascular and respiratory effects could be compared.
The parameters measured are as follows: systolic and diastolic systemic arterial pressure (AP), heart rate (HR), maximum rate of increase in the left ventricular isovolumetric pressure (dp/dt), respiratory frequency (RF) and tidal volume (TV). The doses (in μg/kg body weight, referred to the active substance) varied from 50 μg/kg to 6,400 μg/kg (ratio=2.0); in some cases higher does have been employed.

[3] = doses higher than 50-800 μg/kg i.v., rat

## NCCc1c[nH]c2ccc(O)cc12 [5-hydroxytriptamine]
Male Wistar rats [1]
  Δ AP DIASTOLIC: -39 ± 2 mmHg
  Δ AP SYSTOLIC: -37 ± 3 mmHg
  Δ HR: -12 ± 3 beats/min
  Δ dp/dt: -1410 ± 167 mmHg/sec

## NCCCCN=C(N)N [agmatine, 4-(aminobutyl)guanidine, reference compound]
Male Wistar rats [2]; 200 μg/kg i.v.
  Δ AP DIAST: -4 ± 1 mmHg
  Δ AP SYST: -5 ± 2 mmHg
  Δ HR: 0 beats/min
  Δ RF: +9 ± 3%
  Δ TV: +3 ± 1%
  Δ dp/dt: +300 ± 89 mmHg/sec
Male Wistar rats [2]; 400 μg/kg i.v.
  Δ AP DIAST: -6 ± 2 mmHg
  Δ AP SYST: -6 ± 1 mmHg
  Δ HR: 0 beats/min
  Δ RF: +11 ± 4%
  Δ TV: +12 ± 4%
  Δ dp/dt: +334 ± 54 mmHg/sec
Male Wistar rats [2]; 800 μg/kg i.v.
  Δ AP DIAST: -8 ± 2 mmHg
  Δ AP SYST: -8 ± 2 mmHg
  Δ HR: 0 beats/min
  Δ RF: +12 ± 4%
  Δ TV: +14 ± 2%
  Δ dp/dt: +947 ± 131 mmHg/sec
Male Wistar rats [2]; 1600 μg/kg i.v.
  Δ AP DIAST: -10 ± 1 mmHg
  Δ AP SYST: -9 ± 3 mmHg
  Δ HR: 0 beats/min
  Δ RF: +11 ± 2%
  Δ TV: +25 ± 5%
  Δ dp/dt: +981 ± 94 mmHg/sec
Male Wistar rats [2]; 3200 μg/kg i.v.
  Δ AP DIAST: -11 ± 2 mmHg
  Δ AP SYST: -9 ± 2 mmHg
  Δ HR: -7 ± 2 beats/min
  Δ RF: +13 ± 4%
  Δ TV: +27 ± 4%
  Δ dp/dt: +1356 ± 164 mmHg/sec
Male Wistar rats [2]; 6400 μg/kg i.v.
  Δ AP DIAST: -13 ± 4 mmHg
  Δ AP SYST: -11 ± 4 mmHg
  Δ HR: -13 ± 5 beats/min
  Δ RF: +13 ± 5%
  Δ TV: +30 ± 7%
  Δ dp/dt: +3351 ± 417 mmHg/sec
Male Wistar rats [2]; 12800 μg/kg i.v.
  Δ AP DIAST: -18 ± 5 mmHg
  Δ AP SYST: -12 ± 2 mmHg
  Δ HR: -17 ± 2 beats/min
  Δ RF: +15 ± 2%
  Δ TV: +31 ± 7%
  Δ dp/dt: +2568 ± 432 mmHg/sec
Male Wistar rats [2]; 25600 μg/kg i.v.
  Δ AP DIAST: -23 ± 4 mmHg
  Δ AP SYST: -12 ± 3 mmHg
  Δ HR: -17 ± 7 beats/min
  Δ RF: +24 ± 4%
  Δ TV: +33 ± 9%
  Δ dp/dt: +3565 ± 813 mmHg/sec
Male Wistar rats [2]; 51200 μg/kg i.v.
  Δ AP DIAST: -34 ± 6 mmHg
  Δ AP SYST: -15 ± 1 mmHg
  Δ HR: -22 ± 1 beats/min
  Δ RF: +31 ± 7%
  Δ TV: +35 ± 6%
  Δ dp/dt: +5491 ± 869 mmHg/sec
Male Wistar rats [2]; rat
  cardiovascular and respiratory effects (in words): analogous to those induced by guanido-V., moreover, said active ingredient caused a constant increase in dp/dt, RF and TV

## CC(C)=CCN=C(N)N [galegine, prenylguanidine, reference compound]
Male Wistar rats [2]; 50 μg/kg i.v.
  Δ AP DIAST: -19 ± 3 mmHg
  Δ AP SYST: -18 ± 1 mmHg
  Δ HR: -32 ± 6 beats/min
  Δ RF: +38 ± 4%
  Δ TV: +43 ± 4%
  Δ dp/dt: +1498 ± 131 mmHg/sec
Male Wistar rats [2]; 100 μg/kg i.v.
  Δ AP DIAST: -28 ± 6 mmHg
  Δ AP SYST: -22 ± 2 mmHg
  Δ HR: -46 ± 7 beats/min
  Δ RF: +68 ± 4%
  Δ TV: +63 ± 5%
  Δ dp/dt: +1712 ± 90 mmHg/sec
Male Wistar rats [2]; 200 μg/kg i.v.
  Δ AP DIAST: -29 ± 5 mmHg
  Δ AP SYST: -23 ± 5 mmHg
  Δ HR: -94 ± 6 beats/min
  Δ RF: +69 ± 7%
  Δ TV: +64 ± 7%
  Δ dp/dt: +1797 ± 178 mmHg/sec
Male Wistar rats [2]; 400 μg/kg i.v.
  Δ AP DIAST: -26 ± 4 mmHg
  Δ AP SYST: -25 ± 6 mmHg
  Δ HR: -107 ± 4 beats/min
  Δ RF: +76 ± 9%
  Δ TV: +87 ± 9%
  Δ dp/dt: +2568 ± 314 mmHg/sec
Male Wistar rats [2]; 800 μg/kg i.v.
  Δ AP DIAST: -26 ± 4 mmHg
  Δ AP SYST: -27 ± 4 mmHg
  Δ HR: -106 ± 11 beats/min
  Δ RF: +70 ± 8%
  Δ TV: +31 ± 3%
  Δ dp/dt: +1926 ± 223 mmHg/sec
Male Wistar rats [2]; 1600 μg/kg i.v.
  Δ AP DIAST: -25 ± 4 mmHg
  Δ AP SYST: -22 ± 4 mmHg
  Δ HR: -85 ± 5 beats/min
  Δ RF: +133 ± 14%
  Δ TV: +55 ± 6%
  Δ dp/dt: +1724 ± 104 mmHg/sec
Male Wistar rats [2]; 3200 μg/kg i.v.
  Δ AP DIAST: -36 ± 4 mmHg
  Δ AP SYST: -22 ± 3 mmHg
  Δ HR: -98 ± 16 beats/min
  Δ RF: +85 ± 6%
  Δ TV: +40 ± 7%
  Δ dp/dt: +2996 ± 202 mmHg/sec
Male Wistar rats [2]; 6400 μg/kg i.v.
  Δ AP DIAST: -36 ± 2 mmHg
  Δ AP SYST: -18 ± 4 mmHg
  Δ HR: -42 ± 4 beats/min
  Δ RF: +37 ± 11%
  Δ TV: +29 ± 8%
  Δ dp/dt: +4494 ± 371 mmHg/sec
Male Wistar rats [2]; 12800 μg/kg i.v.
  Δ AP DIAST: -42 ± 3 mmHg
  Δ AP SYST: -22 ± 2.5 mmHg
  Δ HR: -15 ± 7 beats/min
  Δ RF: +23 ± 7%
  Δ TV: +25 ± 5%
  Δ dp/dt: +6420 ± 417 mmHg/sec
Male Wistar rats [2]; 25600 μg/kg i.v.
  Δ AP DIAST: -30 ± 9 mmHg
  Δ AP SYST: -19 ± 3 mmHg
  Δ HR: -21 ± 6 beats/min
  Δ RF: -34 ± 12%
  Δ TV: -57 ± 8%
  Δ dp/dt: +6471 ± 274 mmHg/sec
Male Wistar rats [2]; 51200 μg/kg i.v.
  Δ AP DIAST: -50 ± 7 mmHg
  Δ AP SYST: -80 ± 8 mmHg
  Δ HR: -298 ± 19 beats/min
  Δ RF: -100%
  Δ TV: -100%
  Δ dp/dt: -4708 ± 312 mmHg/sec
Male Wistar rats [2]; 25,600 and 51,200 ug/kg i.v., rat
  death of the tested animals at extremely high doses: primary respiratory depression (reduction of RF and TV) and a subsequent arterial hypotension. bradycardia and decrease in the cardiac inotropism (dp/dt), with death of the tested animals

## N=C(N)N [guanidine]
Male Wistar rats [2]; 50-800 μg/kg i.v., rat
  alterations of RF, TV and HR (in words): did not cause in the rats under test significative alterations of RF, TV and HR
  dp/dt (in words): a little reduction of dp/dt
  hypotensive responses (in words): slight and not significant hypotensive responses
Male Wistar rats [2]; 6,400-1,2600 μg/kg i.v., rat
  the other parameters (in words): slight changes
Male Wistar rats [2]; [3]
  RF and TV (in words): reduction of RF and TV
  cardiac inotropism (dp/dt) (in words): a little increase in cardiac inotropism (dp/dt)
  systemic arterial pressure (in words): biphasic responses of a slight entity (hypo-hypertension)

## CC(C)=CCNC(=N)NCCCCN [guanido-III, prenylagmatine]
Male Wistar rats [2]; 200 μg/kg i.v.
  Δ AP DIAST: -2 ± 0.2 mmHg
  Δ AP SYST: -2 ± 0.3 mmHg
  Δ HR: 0 beats/min
  Δ RF: +7 ± 4%
  Δ TV: +9 ± 2%
  Δ dp/dt: +214 ± 20 mmHg/sec
Male Wistar rats [2]; 400 μg/kg i.v.
  Δ AP DIAST: -2 ± 0.6 mmHg
  Δ AP SYST: -3.5 ± 1.5 mmHg
  Δ HR: 0 beats/min
  Δ RF: +7 ± 3%
  Δ TV: +17 ± 6%
  Δ dp/dt: +321 ± 17 mmHg/sec
Male Wistar rats [2]; 800 μg/kg i.v.
  Δ AP DIAST: -13 ± 4 mmHg
  Δ AP SYST: -11 ± 1 mmHg
  Δ HR: -15 ± 3 beats/min
  Δ RF: +10 ± 4%
  Δ TV: +33 ± 9%
  Δ dp/dt: +1356 ± 428 mmHg/sec
Male Wistar rats [2]; 1600 μg/kg i.v.
  Δ AP DIAST: -21 ± 4 mmHg
  Δ AP SYST: -13 ± 2 mmHg
  Δ HR: -23 ± 10 beats/min
  Δ RF: +18 ± 3%
  Δ TV: +21 ± 7%
  Δ dp/dt: +2157 ± 655 mmHg/sec
Male Wistar rats [2]; 3200 μg/kg i.v.
  Δ AP DIAST: -36 ± 6 mmHg
  Δ AP SYST: -36 ± 7 mmHg
  Δ HR: -26 ± 8 beats/min
  Δ RF: -42 ± 9%
  Δ TV: -73 ± 18%
Male Wistar rats [2]; 6400 μg/kg i.v.
  Δ AP DIAST: -85 ± 3 mmHg
  Δ AP SYST: -112 ± 3 mmHg
  Δ HR: -310 ± 25 beats/min
  Δ RF: -100%
  Δ TV: -100%
  Δ dp/dt: -5422 ± 514 mmHg/sec
Male Wistar rats [2]; rat
  cardiovascular and respiratory effects (in words): systolic and diastolic arterial hypotension (well evident starting from the dose of 800 μg/kg), bradycardia, increase of dp/dt (up to the dose of 3,200 μg/kg). increase of RF and TV (up to the dose of 1,600 μg/kg)
Male Wistar rats [2]; rat, in vivo, iv
  death of the tested animals: caused death of the tested animals

## COc1ccc(C=CC(=O)NCCCCNC(=N)N)cc1OC [guanido-V, 4-[(3,4-dimethoxycinnamoyl)amino]butylguanldine]
Male Wistar rats [2]; 200 μg/kg i.v.
  Δ AP DIAST: 0 mmHg
  Δ AP SYST: 0 mmHg
  Δ HR: 0 beats/min
  Δ RF: -7 ± 2%
  Δ TV: -14 ± 4%
  Δ dp/dt: -392 ± 21 mmHg/sec
Male Wistar rats [2]; 400 μg/kg i.v.
  Δ AP DIAST: -3 ± 1 mmHg
  Δ AP SYST: -4 ± 2 mmHg
  Δ HR: 0 beats/min
  Δ RF: -3%
  Δ TV: -13 ± 2%
  Δ dp/dt: -384 ± 39 mmHg/sec
Male Wistar rats [2]; 800 μg/kg i.v.
  Δ AP DIAST: -6 ± 2 mmHg
  Δ AP SYST: -5 ± 2 mmHg
  Δ HR: 0 beats/min
  Δ RF: -3 ± 2%
  Δ TV: +12 ± 4%
  Δ dp/dt: -430 ± 43 mmHg/sec
Male Wistar rats [2]; 1600 μg/kg i.v.
  Δ AP DIAST: -6 ± 2 mmHg
  Δ AP SYST: -8 ± 3 mmHg
  Δ HR: 0 beats/min
  Δ RF: -4 ± 1%
  Δ TV: +11 ± 3%
  Δ dp/dt: -642 ± 76 mmHg/sec
Male Wistar rats [2]; 3200 μg/kg i.v.
  Δ AP DIAST: -9 ± 3 mmHg
  Δ AP SYST: -10 ± 4 mmHg
  Δ HR: 0 beats/min
  Δ RF: +1 ± 1%
  Δ TV: +20 ± 6%
  Δ dp/dt: +684 ± 38 mmHg/sec
Male Wistar rats [2]; 6400 μg/kg i.v.
  Δ AP DIAST: -15 ± 4 mmHg
  Δ AP SYST: -11 ± 3 mmHg
  Δ HR: -14 ± 6 beats/min
  Δ RF: +10 ± 4%
  Δ TV: +22 ± 7%
  Δ dp/dt: +2354 ± 214 mmHg/sec
Male Wistar rats [2]; 12800 μg/kg i.v.
  Δ AP DIAST: -28 ± 4 mmHg
  Δ AP SYST: -23 ± 5 mmHg
  Δ HR: -49 ± 8 beats/min
  Δ RF: +11 ± 3%
  Δ TV: +74 ± 8%
  Δ dp/dt: +2996 ± 170 mmHg/sec
Male Wistar rats [2]; 102400 μg/kg i.v.
  Δ AP DIAST: -30 ± 5 mmHg
  Δ AP SYST: -24 ± 4 mmHg
  Δ HR: -67 ± 11 beats/min
  Δ RF: +6 ± 4%
  Δ TV: +79 ± 12%
  Δ dp/dt: +3040 ± 224 mmHg/sec
Male Wistar rats [2]; rat
  cardiovascular and respiratory effects (in words): systolic and diastolic arterial hypotension, more evident from the dose of 3,200 μg/kg on; bradycardia was observed starting from the dose of 6,400 μg/kg, a slight reduction of dp/dt and RF appeared up to the highest doses; TV showed a similar trend
